Measurements published in patent US20240317762A1, “PHTHALAZINONE-BASED PARP-1 INHIBITORS” (Oregon Health & Science University, priority 2021, published 2024).

Experiments:
[1] = system: pan-nuclear γH2AX in HEK 293T cells; assay: γH2AX immunofluorescence; type: cell-based, human
Description: HEK 293T or HEK 293 PARP-1 KO cells were seeded onto poly-d-lysine treated glass coverslips and treated with indicated concentrations of inhibitors for 18 hours. Cells were then washed with 1×PBS and fixed using 4% Sucrose/4% Paraformaldehyde in PBS for 20 minutes. After three washes in 1×PBS, cells were permeabilized in 0.3% Triton X-100 in PBS for 5 minutes followed by an additional three washes in 1×PBS. Coverslips were blocked in 3% BSA/0.1% Triton X-100 in PBS for 1 hour and then placed in primary anti-rabbit phosphoH2Ax antibody (1:200, Cell Signaling) overnight at 4° C. The next morning, cells were washed three times in 1×PBS and treated with blocking solution, 3% BSA/0.1% Triton X-100 in PBS, for 30 minutes before being placed in secondary anti-rabbit Alexa Fluor 647 (1:1000 Jackson Immuno) for 1 hour at RT. After three subsequent 1×PBS washes, coverslips were mounted using ProLong Gold antifade reagent with DAPI (Invitrogen). All immunofluorescence images were taken on a Zeiss ApoTome2 on Axiolmager and analyzed using Zeiss software. Mean intensity of the Alexa Fluor 647 signal was measured after imposing DAPI masks over the nucleus of each cell. All cells within a 20× image, was analyzed (˜3000 cells/condition).
Cell are stained for DAPI and γH2AX. Scale bar indicates 50 μm. FIG. 2B) Quantification of panel a. […] Error bars represent SEM. […] Error bars represent SEM. […] Error bars represent SEM.

PARP-1 = PARP-1 (Homo sapiens, UniProt P09874); assay: in-cell competition labeling with ad-olaparib photoaffinity probe; type: cell-based
Description: Photocrosslinking in intact cells. HEK293 CRL and PARP-1 KO cells were grown in DMEM for 2 days in a 60 mm dish for 2 days to reach 80-90% confluency. […] Cells were then washed once with PBS, covered with PBS and irradiated for 5 min in the RPR-100 Photochemical Reactor (Rayonet) equipped with 350 nm lamps at 4° C. Cells were lysed on ice in 1% SDS, 1% Triton X-100 and EDTA-free protease inhibitor cocktail (Roche) in PBS for 10 min and then probe sonicated to shear the nuclear DNA. Protein concentration was determined with Bio-Rad Protein assay. The lysate was diluted in PBS to a final Click reaction concentration of 2 mg/mL.
Click Chemistry. Reaction was started by mixing 30 μL of each sample with 15 μL of PBS based 3× Click reaction mixture containing (final concentrations): 100 μM Tris[(1-benzyl-1H-1,2,3triazol-4-yl)methyl]amine (TBTA, Click Chemistry Tools), 1 mM CuSO4, 40 μM tetramethylrhodamine (TAMRA)-azide (Click Chemistry Tools), 1 mM Tris(2-carboxyethyl)phosphine hydrochloride (TCEP, Thermo Fisher) and 15% tert-Butyl alcohol, and let to procced for 1 h at RT while gently shaking. Reactions were stopped by adding 4× Laemmli sample buffer and boiling at 95° C. for 5 min.
In gel fluorescence, western blotting and quantification. Samples were loaded to 8 or 10% SDS-polyacrylamide gels and run until the dye front left the gel. First, in-gel fluorescence was detected with ChemiDoc XRS+ (Biorad) using Rhodamine filter and then the proteins were transferred on nitrocellulose membrane, the membrane was blocked and probed for PARP-1 (1:3000) and alpha-tubulin (1:1000). Both antibodies were from cell signaling. Band intensities we quantified with ImageJ.
FIGS. 6A-6E. […] 0.1 μM ad-olaparib (chemical structure indicated in panel a) was added to the cells for 1 hour before undergoing a UV treatment for 5 minutes in cold PBS. Cells were lysed and sonicated in PBS (1% Triton X-100+1% SDS), clicked with TAMRA-azide and run out on SDS-PAGE. The gel was imaged for TAMRA and probed for PARP-1 (Bethyl Laboratories), and alpha-tubulin (X). FIGS. 6B, 6D) Quantification of western blot images. TAMRA or ADPr values are normalized to PARP-1 within each replicate and plotted as percentage compared to DMSO. Error bars indicate SEM (n=3-4). Statistical significance of off-rate calculated via multiple t-tests (p<0.05). […] Cells were subsequently treated with PARGi (10 μM) for 30 minutes, lysed using RIPA buffer, run out on SDS-PAGE, and probed for ADPr (Cell Signaling) and PARP-1 (Bethyl Laboratories). FIG. 6E) ES-8 cells were treated with indicated concentration of inhibitors for 72 hours before measuring cell viability using the CellTiter-Glo kit (Promega G7573). IC50 values were calculated using R statistical software.

D770A PARP-1 = D770A PARP-1 (Homo sapiens, UniProt P09874, D770A); assay: catalytic activity of PARP-1 mutant expressed in HEK 293 cells, D770A; type: biochemical; details: 3 μM AZ0108
HEK 293T cells [2] = assay: neutral comet assay; type: cell-based, human; details: 1 μM overnight, compared to bleomycin
Description: Cells were washed with 1×PBS, trypsinized, resuspended in a 1000,000 cells/ml 1×PBS solution, and mixed with molten agarose 1:2. The agarose mixture was placed onto CometSlides and the comet assay was completed following the manufacturer instructions (Trevigen, 4250-050-K). DNA was stained using SYBR Green and slides were imaged on a Zeiss ApoTome2 on Axiolmager using a 10× objective (>100 cells/condition).

HEK 293 PARP-1 KO cells = assay: cell proliferation (MTT) assay in PARP-1 KO cells; type: cell-based, human; details: PARP-1 KO vs control HEK 293 cells, MTT 72 h
Description: Error bars represent SEM. […] Error bars represent SEM. […] Error bars represent SEM.

[3] = system: Ser345 phosphorylation of Chk1 in HEK 293 cells; assay: western blot analysis of phosphorylation of Chk1; details: HEK 293 cells, 18 hours
HEK 293T cells [4] = assay: analysis of cell cycle (DAPI, flow cytometry)
Description: After the indicated treatments, cells were washed twice with 1× PBS, trypsinized off of the plate, and washed an additional 2 times with 1×PBS. Cells were then permeabilized using 70% cold ethanol while vortexing before incubating for 30 min at 4° C. Cells were then washed three times with 1×PBS and counted using a hemocytometer to create a final pellet of 1×10^6 cells in for each inhibitor condition. 500 μl of DAPI solution (1 μg/ml DAPI, 0.1% Triton X-100 in PBS) was added to each cell pellet and incubated on ice for 30 min before being analyzed by flow cytometry using a BD Canto II. All data was analyzed on FlowJo software, gating for 20,000 singlet events. Manual cell cycle gates were set onto the DMSO control data using Watson modeling as reference. These gates were applied to all treatment conditions to obtain quantitative analysis.
Error bars represent SEM. […] Caspase-Glo 3/7 reagent was added to each well and luminescence was read after 30 minutes. […] Error bars represent SEM. […] Cell cycle was analyzed by flow cytometry (20,000 singlet events) and cell cycle statistics were calculated in FlowJo software against DMSO Watson modeling (n=3). FIG. 3F) DNA synthesis was measured using EdU incorporation. […] EdU incorporation was labelled using TAMRA azide click-chemistry and imaged at 20×. Mean intensity of TAMRA signal within DAPI masks analyzed using Zen software (n>3900 cells over 2 replicates). Values are normalized to the average DMSO control within each replicate. Error bars represent SEM. Statistical significance calculated via one-way ANOVA with Tukey's multiple comparisons test (p<0.05).

PARP-1, sequence (P09874 whole entry): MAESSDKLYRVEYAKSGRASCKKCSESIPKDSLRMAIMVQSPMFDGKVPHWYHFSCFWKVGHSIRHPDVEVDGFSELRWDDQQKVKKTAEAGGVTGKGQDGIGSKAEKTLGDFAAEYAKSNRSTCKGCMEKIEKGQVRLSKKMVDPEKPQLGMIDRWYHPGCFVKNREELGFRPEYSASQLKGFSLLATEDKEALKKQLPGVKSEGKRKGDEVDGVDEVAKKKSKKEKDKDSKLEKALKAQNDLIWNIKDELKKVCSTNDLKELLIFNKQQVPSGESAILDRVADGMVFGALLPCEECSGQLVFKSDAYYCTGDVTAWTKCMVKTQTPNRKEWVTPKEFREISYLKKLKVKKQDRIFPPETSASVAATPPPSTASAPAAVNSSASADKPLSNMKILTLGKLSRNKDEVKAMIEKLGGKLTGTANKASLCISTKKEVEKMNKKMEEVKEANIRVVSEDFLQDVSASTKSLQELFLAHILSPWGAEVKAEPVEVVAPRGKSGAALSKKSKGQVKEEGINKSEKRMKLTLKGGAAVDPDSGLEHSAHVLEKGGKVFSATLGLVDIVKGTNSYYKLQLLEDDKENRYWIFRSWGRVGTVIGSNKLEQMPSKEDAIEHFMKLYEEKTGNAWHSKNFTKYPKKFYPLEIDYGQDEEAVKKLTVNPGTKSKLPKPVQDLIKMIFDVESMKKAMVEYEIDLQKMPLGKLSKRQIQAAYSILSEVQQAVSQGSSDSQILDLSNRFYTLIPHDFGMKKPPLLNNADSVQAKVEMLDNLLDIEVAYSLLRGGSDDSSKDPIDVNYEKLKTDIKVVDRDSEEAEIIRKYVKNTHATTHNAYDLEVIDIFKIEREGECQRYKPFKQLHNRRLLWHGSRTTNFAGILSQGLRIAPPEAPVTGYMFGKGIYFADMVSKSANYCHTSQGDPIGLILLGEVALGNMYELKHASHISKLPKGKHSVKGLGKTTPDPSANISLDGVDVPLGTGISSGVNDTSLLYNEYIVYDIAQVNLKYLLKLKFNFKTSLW
D770A PARP-1, sequence (P09874 whole entry D770A): as the sequence (P09874 whole entry) above, with D770A counted along it

## (S)-4-(difluoro(3-(6-methyl-3-(trifluoromethyl)-5,6,7,8-tetrahydro-[1,2,4]triazolo[4,3-a]pyrazine-7-carbonyl)phenyl)methyl)phthalazin-1(2H)-one [AZ0108]
[1]; HEK 293T cells, 18 hours
  pan-nuclear γH2AX induction: dose-dependent increase
[1]; HEK293 control vs PARP-1 KO cells, 3 μM AZ0108
  dependence of pan-nuclear γH2AX signal on PARP-1: dependent on the presence of PARP-1
PARP-1; 10 μM inhibitor, 0.1 μM ad-olaparib
  labeling of PARP-1 by ad-olaparib after pre-treatment: substantially blocked
PARP-1; washout (3 h)
  recovery of labeling of PARP-1 by ad-olaparib after washout: more than 2 fold
D770A PARP-1
  inhibition of D770A PARP-1 activity: inhibited
HEK 293T cells [2]
  double-strand breaks (DSBs): only weakly generated DSBs
HEK 293 PARP-1 KO cells
  increase in the EC50 value on cell growth by KO of PARP-1: 43 fold
[3]
  Ser345 phosphorylation of Chk1: induced Ser345 phosphorylation of Chk1
HEK 293T cells [4]; DAPI intensity, 18 hours
  G1: 9.31%
  G2: 9.65%
  S: 77.4%
HEK 293T cells [4]; FACS, DAPI fluorescence
  effect on cell cycle: arrested HEK 293 cells in S-phase
